Earlier results in US20180140566A1, “ACETAMINOPHEN AND TRAMADOL COMPOUND ORAL SOLUTION” (BORA PHARMACEUTICALS CO., LTD., priority 2016, published 2018).

SMILES	solubility in acetone (acetone, in words)	solubility in water (water, in words)	amount of acetaminophen dissolved per milliliter of water (per milliliter (mL) of water, at 25 degrees Celsius)
COc1cccc(C2(O)CCCCC2CN(C)C)c1 (stereo not drawn) [Tramadol, tramadol]	hardly dissolves	makes great aqueous solutions	
CC(=O)Nc1ccc(O)cc1 [acetaminophen]			no more than 14.00 mg
